Holding throughout (format): cell-based, Saccharomyces cerevisiae
Assay [1] concerns transformed budding yeast AH22-StOS1. Put plainly: Antifungal compound sensitivity test, transformed budding yeast AH22-StOS1 (Example 16). To be noted: 30° C. 28 hours, relative value in percentage. Here is the method:
The transformed budding yeast AH22-StOS1 prepared in Example 15 was cultured while shaking at 30° C. for 18 hours in a Glu-Leu medium. As a control, the AH22 strain was similarly cultured while shaking at 30° C. for 18 hours in a Glu medium. The absorbance at 600 nm of each grown transformed budding yeast in a cell suspension was measured, and cell suspension diluted with sterilized distilled water to the absorbance of 0.1 was prepared. Further, a cell suspension in which the aforementioned cell suspension of the transformed budding yeast AH22-StOS1 was diluted 50-fold with a Glu-Leu medium, and a cell suspension in which the aforementioned cell suspension of the AH22 strain was diluted 50-fold with a Glu medium were prepared.
A solution in which each of Compounds (1) to (3) was dissolved in dimethylsulfoxide (DMSO) to the concentration of 6 ppm, a solution in which each of Compounds (4) and (5) was dissolved in dimethylsulfoxide (DMSO) to the concentration of 2000 ppm, and a solution in which Compounds (6) and (7) was dissolved in dimethylsulfoxide (DMSO) to the concentration of 20 ppm were prepared, and two microplates were prepared in which each 1.0 μL per well of the Compound solution and DMSO as a control were dispensed. In one microplate among them, each 100 μL of cell suspensions of the transformed budding yeast AH22-StOS1 which had been prepared by dilution as described above was dispensed, and cultured by allowing to stand at 30° C. for 28 hours. In another microplate, each 100 μL of cell suspensions of the control yeast AH22 strain which had been prepared by dilution as described above was dispensed, and cultured by allowing to stand at 30° C. for 24.5 hours. After culturing, the absorbance at 600 nm of each well was measured with a microplate reader.
(§1) A degree of growth of the transformed budding yeast is expressed as a relative value in percentage, letting the absorbance at 600 nm at the concentration of the Compound of 0 ppm to be 100. It was confirmed that an inhibiting degree of growth of the transformed budding yeast TM182-StOS1 by each test substance was grater than an inhibiting degree of growth of the transformed budding yeast AH22-StOS1 by each test substance, and the transformed budding yeast TM182-StOS1 was a transformed cell with the enhanced sensitivity to an antifungal compound as compared with the transformed budding yeast AH22-StOS1.

The subject of assay [2] is transformed budding yeast TM182-StOS1. Nature of the assay: Antifungal compound sensitivity test of transformed budding yeast TM182-StOS1 (Example 16). The note with it: for Degree of growth of budding yeast TM182-StOS1 Gal-Ura-Leu medium: control medium, 30° C. 49.5 hours; for Degree of growth of budding yeast TM182-StOS1 Gul-Ura-Leu medium: 30° C. 26.5 hours. Here is the method:
Similarly, the transformed budding yeast TM182-StOS1 prepared in Example 15 was cultured at 30° C. for 18 hours in a Glu-Ura-Leu medium. The absorbance at 600 nm of the grown transformed budding yeast in a cell suspension was measured, and a cell suspension diluted with sterilized distilled water to the absorbance of 0.1 was prepared. Further, a cell suspension in which the transformed budding yeast TM182-StOS1 was diluted 50-fold with a Glu-Ura-Leu medium and, as a control, a cell suspension in which the yeast was diluted 50-fold with a Gal-Ura-Leu medium were prepared.
A solution in which each of Compounds (1) to (3) was dissolved in dimethylsulfoxide (DMSO) to the concentration of 6 ppm, a solution in which each of Compounds (4) and (5) was dissolved in dimethylsulfoxide (DMSO) to the concentration of 2000 ppm, and a solution in which each of Compounds (6) and (7) was dissolved in dimethylsulfoxide (DMSO) to the concentration of 20 ppm were prepared, and two microplates were prepared in which each 2.0 μL per well of the Compound-DMSO solution and DMSO as a control were dispensed into 2 wells. In one microplate among them, each 100 μL of cell suspensions of the transformed budding yeast TM182-StOS1 which had been prepared by dilution with a Glu-Ura-Leu medium as described above was dispensed, and cultured by allowing to stand at 30° C. for 26.5 hours. In another microplate, as described above, as a control, each 100 μL of cell suspensions of the transformed budding yeast TM182-StOS1 which had been prepared by dilution with a Gal-Ura-Leu medium was dispensed, and cultured at 30° C. for 49.5 hours. After culturing, the absorbance at 600 nm of each well was measured with a microplate reader.
as §1

The subject of assay [3] is transformed budding yeast TM182-BcOS1-I365S. Put plainly: Antifungal compound sensitivity test of transformed budding yeast TM182-BcOS1-I365S (Example 6). To be noted: final concentration 6 ppm, 30° C. 67 hours; for Degree of growth of budding yeast (%) TM182-BcOS1-I365S Gal-Ura-Leu medium: control medium.

Consider `COP(=S)(OC)Oc1c(Cl)cc(C)cc1Cl` [Compound (5), Tolclofos-methyl], for which the “Degree of growth of budding yeast AH22-StOS1 Glu-Leu medium” value in assay [1] (final concentration 20 ppm) was determined as 76%. For the same molecule, in assay [2] (final concentration 20 ppm), the “Degree of growth of budding yeast TM182-StOS1 Gal-Ura-Leu medium” value is given as 74% and the “Degree of growth of budding yeast TM182-StOS1 Gul-Ura-Leu medium” value is reported as 6%.
The like results for `O=[N+]([O-])c1c(Cl)c(Cl)c(Cl)c(Cl)c1Cl` [Compound (4), Quintozene] were, in that order, 91%, 99% and 7%.
For `N#Cc1c[nH]cc1-c1cccc(Cl)c1Cl` [Compound (7), Fenpiclonil], the “Degree of growth of budding yeast AH22-StOS1 Glu-Leu medium” value in assay [1] (final concentration 0.2 ppm) is 91%. For the same molecule, in assay [2] (final concentration 0.2 ppm), the “Degree of growth of budding yeast TM182-StOS1 Gal-Ura-Leu medium” value came out at 91% and the “Degree of growth of budding yeast TM182-StOS1 Gul-Ura-Leu medium” value came to 9%.
For `N#Cc1c[nH]cc1-c1cccc2c1OC(F)(F)O2` [Compound (6), Fludioxonil], the “Degree of growth of budding yeast AH22-StOS1 Glu-Leu medium” value in assay [1] (final concentration 0.2 ppm) turned out to be 93%. In addition, in assay [2] (final concentration 0.2 ppm), the “Degree of growth of budding yeast TM182-StOS1 Gal-Ura-Leu medium” value was found to be 97% and the “Degree of growth of budding yeast TM182-StOS1 Gul-Ura-Leu medium” value was 6%.
As for `C=CC1(C)OC(=O)N(c2cc(Cl)cc(Cl)c2)C1=O` (stereo not drawn) [Compound (3), Vinclozolin], in assay [3], the “Degree of growth of budding yeast (%) TM182-BcOS1-I365S Gal-Ura-Leu medium” value is 92% and the “Degree of growth of budding yeast (%) TM182-BcOS1-I365S Glu-Ura-Leu medium” value turned out to be 9%. Moreover, the “Degree of growth of budding yeast AH22-StOS1 Glu-Leu medium” value in assay [1] (final concentration 0.6 ppm) stood at 98%. Also, in assay [2] (final concentration 0.6 ppm), the “Degree of growth of budding yeast TM182-StOS1 Gal-Ura-Leu medium” value stood at 94% and the “Degree of growth of budding yeast TM182-StOS1 Gul-Ura-Leu medium” value is given as 19%.
For `CC(C)NC(=O)N1CC(=O)N(c2cc(Cl)cc(Cl)c2)C1=O` [Compound (2), Iprodione] the same measures were 88%, 11%, 100%, 97% and 23%.
For `CC12CC1(C)C(=O)N(c1cc(Cl)cc(Cl)c1)C2=O` (stereo not drawn) [Compound (1), Procymidone] the same measures were 99%, 9%, 101%, 101% and 67%.

Values taken from patent US7452688B2, “Transformed cell with enhanced sensitivity to antifungal compound and use thereof” (Sumitomo Chemical Company, Limited, priority 2002, dated 2008).
